Experiments:
blackgrass [1] = test: Test Example 4: herbicidal effect by soil treatment (Table 19, symbol J); type: in vivo, blackgrass (Alopecurus myosuroides)
Summary of the method: (§1)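 Soil-surface application: an emulsion agent diluted with water to the predetermined dose is sprayed uniformly over seeds lying under roughly 1.5 cm of sterilized diluvial soil. Boxes stay in a greenhouse at 25° C. to 30° C. Three weeks later, each species is graded on previously defined criteria.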

southern crabgrass [2] = test: Test Example 4: herbicidal effect by soil treatment (Table 19, symbol F); type: in vivo, southern crabgrass (Digitaria ciliaris)
Summary of the method: as §1

rice flat sedge = test: Test Example 3: herbicidal effect by foliage application, Wagner pot (Table 18, symbol E); type: in vivo, rice flat sedge (Cyperus iria)
Summary of the method: (§2)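 Plants were sown in alluvial soil held under 0.1–0.5 cm standing water and grown 14 days in a greenhouse at 25–30 °C. An emulsifiable formulation, water-diluted to the set dose, was then sprayed onto the foliage, and effects were scored three weeks later using previously defined criteria.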

wild oat [3] = test: Test Example 5: herbicidal effect by foliage application, plastic box (Table 20, symbol I); type: in vivo, wild oat (Avena fatua); settings: for I: wild oat, herbicidal effect grade: foliage application, three weeks after application
Summary of the method: (§3)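 Sow seeds spot-wise in sterilized diluvial soil; cover with ~1.5 cm soil. Grow 14 days in greenhouse, 25° C. to 30° C. Spray foliage with emulsion diluted to predetermined amount. Rate effect after 3 weeks.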

lambsquarters = test: Test Example 5: herbicidal effect by foliage application, plastic box (Table 20, symbol O); type: in vivo, lambsquarters (Chenopodium album); settings: for O: lambsquarters, herbicidal effect grade: foliage application, three weeks after application
Summary of the method: as §3

wild oat [4] = test: Test Example 4: herbicidal effect by soil treatment (Table 19, symbol I); type: in vivo, wild oat (Avena fatua)
Summary of the method: as §1

Japanese bulrush = test: Test Example 2: herbicidal activity, application during weed generation under submerged conditions (Table 17, symbol B); type: in vivo, Japanese bulrush (Schoenoplectus juncoides); settings: application during weed generation, submerged conditions
Summary of the method: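 Effect on each weed is rated three weeks post-treatment, using the same scoring criteria as the preceding test. Plants grow from mixed-sown seed in flooded alluvial soil (4 cm water) at 25° C. to 30° C., and are treated at one to two leaves with diluted emulsion dropped onto the water.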

blackgrass [5] = test: Test Example 5: herbicidal effect by foliage application, plastic box (Table 20, symbol J); type: in vivo, blackgrass (Alopecurus myosuroides); settings: for J: blackgrass, herbicidal effect grade: foliage application, three weeks after application
Summary of the method: as §3

oval-leafed pondweed = test: Test Example 1: herbicidal activity, application before weed generation under submerged conditions (Table 16, symbol C); type: in vivo, oval-leafed pondweed (Monochoria vaginalis)
Summary of the method: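 Emulsion formulation, water-diluted to set dose, was put onto the flooded surface (4 cm depth, alluvial soil) the same day weeds were sown and 2.5-leaf rice transplanted. After 3 weeks at 25-30 °C under glass, each species was rated 0 (≤5% kill) to 5 (≥90% kill).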

velvetleaf = test: Test Example 5: herbicidal effect by foliage application, plastic box (Table 20, symbol M); type: in vivo, velvetleaf (Abutilon theophrasti); settings: for M: velvetleaf, herbicidal effect grade: foliage application, three weeks after application
Summary of the method: as §3

Chinese sprangletop = test: Test Example 3: herbicidal effect by foliage application, Wagner pot (Table 18, symbol D); type: in vivo, chinese sprangletop (Leptochloa chinensis)
Summary of the method: as §2

southern crabgrass [6] = test: Test Example 5: herbicidal effect by foliage application, plastic box (Table 20, symbol F); type: in vivo, southern crabgrass (Digitaria ciliaris); settings: for F: southern crabgrass, herbicidal effect grade: foliage application, three weeks after application
Summary of the method: as §3

barnyard grass = test: Test Example 5: herbicidal effect by foliage application, plastic box (Table 20, symbol H); type: in vivo, barnyard grass (Echinochloa crus-galli); settings: for H: barnyard grass, herbicidal effect grade: foliage application, three weeks after application
Summary of the method: as §3

Italian ryegrass = test: Test Example 5: herbicidal effect by foliage application, plastic box (Table 20, symbol K); type: in vivo, Italian ryegrass (Lolium multiflorum); settings: for K: Italian ryegrass, herbicidal effect grade: foliage application, three weeks after application
Summary of the method: as §3

redroot pigweed = test: Test Example 4: herbicidal effect by soil treatment (Table 19, symbol N); type: in vivo, redroot pigweed (Amaranthus retroflexus)
Summary of the method: as §1

false cleavers = test: Test Example 5: herbicidal effect by foliage application, plastic box (Table 20, symbol Q); type: in vivo, false cleavers (Galium spurium); settings: foliage application, three weeks after application
Summary of the method: as §3

green foxtail = test: Test Example 4: herbicidal effect by soil treatment (Table 19, symbol G); type: in vivo, green foxtail (Setaria viridis); settings: amount of applied herbicide 320 g/ha
Summary of the method: as §1

[7] = amount of applied herbicide 320 g/ha
[8] = amount of applied herbicide 296 g/ha
[9] = 320 g/ha, foliage application after 14-day growth, evaluated three weeks after application

CCCC(=O)Oc1c(C)nn(C)c(=O)c1-c1c(-c2ccccc2)sc2cc(OC)ccc12 [3-062]
J: blackgrass, herbicidal effect grade (blackgrass [1]; [7]): 0 (Herbicidal rate of 5% or less (almost no effect)) | F: southern crabgrass, herbicidal effect grade (southern crabgrass [2]; [7]): 0 (Herbicidal rate of 5% or less (almost no effect)) | herbicidal effect on rice flat sedge (E) (rice flat sedge; 320 g/ha): 5 (Herbicidal rate of 90% or more (almost completely withered)) | I: wild oat, herbicidal effect grade (wild oat [3]; 320 g/ha): 2 (Herbicidal rate of 20% or more and less than 40%) | O: lambsquarters, herbicidal effect grade (lambsquarters; 320 g/ha): 2 (Herbicidal rate of 20% or more and less than 40%) | I: wild oat, herbicidal effect grade (wild oat [4]; [7]): 0 (Herbicidal rate of 5% or less (almost no effect)) | herbicidal effect rating, B: Japanese bulrush (Japanese bulrush; AAH 320 g/ha): 3 (Herbicidal rate of 40% or more and less than 70%) | J: blackgrass, herbicidal effect grade (blackgrass [5]; 320 g/ha): 0 (Herbicidal rate of 5% or less (almost no effect)) | Herbicidal effect, C: oval-leafed pondweed (oval-leafed pondweed; [7]): 4 (Herbicidal rate of 70% or more and less than 90%) | M: velvetleaf, herbicidal effect grade (velvetleaf; 320 g/ha): 3 (Herbicidal rate of 40% or more and less than 70%) | herbicidal effect on Chinese sprangletop (D) (Chinese sprangletop; 320 g/ha): 1 (Herbicidal rate of 5% or more and less than 20%) | F: southern crabgrass, herbicidal effect grade (southern crabgrass [6]; 320 g/ha): 0 (Herbicidal rate of 5% or less (almost no effect)) | H: barnyard grass, herbicidal effect grade (barnyard grass; 320 g/ha): 0 (Herbicidal rate of 5% or less (almost no effect)) | K: Italian ryegrass, herbicidal effect grade (Italian ryegrass; 320 g/ha): 2 (Herbicidal rate of 20% or more and less than 40%) | N: redroot pigweed, herbicidal effect grade (redroot pigweed; [7]): 0 (Herbicidal rate of 5% or less (almost no effect)) | Q: false cleavers, herbicidal effect grade (false cleavers; 320 g/ha): 4 (Herbicidal rate of 70% or more and less than 90%)

CCCC(=O)Oc1c(C)nn(C)c(=O)c1-c1c(-c2ccccc2OC)sc2cc(OC)ccc12 [Compound No. 3-066, 5-(6-methoxy-2-(2-methoxyphenyl)benzo[b]thiophen-3-yl)-1,3-dimethyl-6-oxo-1,6-dihydropyridazin-4-yl=(n-butyrate)]
J: blackgrass, herbicidal effect grade (blackgrass [1]; [8]): 3 (Herbicidal rate of 40% or more and less than 70%) | F: southern crabgrass, herbicidal effect grade (southern crabgrass [2]; [8]): 0 (Herbicidal rate of 5% or less (almost no effect)) | herbicidal effect on rice flat sedge (E) (rice flat sedge; 296 g/ha): 5 (Herbicidal rate of 90% or more (almost completely withered)) | I: wild oat, herbicidal effect grade (wild oat [3]; 296 g/ha): 3 (Herbicidal rate of 40% or more and less than 70%) | O: lambsquarters, herbicidal effect grade (lambsquarters; 296 g/ha): 5 (Herbicidal rate of 90% or more (almost completely withered)) | I: wild oat, herbicidal effect grade (wild oat [4]; [8]): 2 (Herbicidal rate of 20% or more and less than 40%) | herbicidal effect rating, B: Japanese bulrush (Japanese bulrush; AAH 296 g/ha): 4 (Herbicidal rate of 70% or more and less than 90%) | J: blackgrass, herbicidal effect grade (blackgrass [5]; 296 g/ha): 4 (Herbicidal rate of 70% or more and less than 90%) | Herbicidal effect, C: oval-leafed pondweed (oval-leafed pondweed; [8]): 5 (Herbicidal rate of 90% or more (almost completely withered)) | M: velvetleaf, herbicidal effect grade (velvetleaf; 296 g/ha): 4 (Herbicidal rate of 70% or more and less than 90%) | herbicidal effect on Chinese sprangletop (D) (Chinese sprangletop; 296 g/ha): 1 (Herbicidal rate of 5% or more and less than 20%) | F: southern crabgrass, herbicidal effect grade (southern crabgrass [6]; 296 g/ha): 4 (Herbicidal rate of 70% or more and less than 90%) | H: barnyard grass, herbicidal effect grade (barnyard grass; 296 g/ha): 4 (Herbicidal rate of 70% or more and less than 90%) | K: Italian ryegrass, herbicidal effect grade (Italian ryegrass; 296 g/ha): 4 (Herbicidal rate of 70% or more and less than 90%) | N: redroot pigweed, herbicidal effect grade (redroot pigweed; [8]): 0 (Herbicidal rate of 5% or less (almost no effect)) | Q: false cleavers, herbicidal effect grade (false cleavers; 296 g/ha): 0 (Herbicidal rate of 5% or less (almost no effect))

CCCC(=O)Oc1c(C)nn(C)c(=O)c1-c1c(-c2ccc(F)cc2OC)sc2cc(F)ccc12 [3-010]
herbicidal effect, J: blackgrass (blackgrass [1]; [7]): 4 (Herbicidal rate of 70% or more and less than 90%) | herbicidal effect, F: southern crabgrass (southern crabgrass [2]; [7]): 3 (Herbicidal rate of 40% or more and less than 70%) | herbicidal effect on E: rice flat sedge (rice flat sedge; [7]): 4 (Herbicidal rate of 70% or more and less than 90%) | I: wild oat, herbicidal effect grade (wild oat [3]; 320 g/ha): 5 (Herbicidal rate of 90% or more (almost completely withered)) | O: lambsquarters, herbicidal effect grade (lambsquarters; 320 g/ha): 5 (Herbicidal rate of 90% or more (almost completely withered)) | herbicidal effect, I: wild oat (wild oat [4]; [7]): 4 (Herbicidal rate of 70% or more and less than 90%) | herbicidal effect, G: green foxtail (green foxtail): 3 (Herbicidal rate of 40% or more and less than 70%) | J: blackgrass, herbicidal effect grade (blackgrass [5]; 320 g/ha): 5 (Herbicidal rate of 90% or more (almost completely withered)) | Herbicidal effect, C: oval-leafed pondweed (oval-leafed pondweed; [7]): 3 (Herbicidal rate of 40% or more and less than 70%) | M: velvetleaf, herbicidal effect grade (velvetleaf; 320 g/ha): 5 (Herbicidal rate of 90% or more (almost completely withered)) | herbicidal effect on D: Chinese sprangletop (Chinese sprangletop; [7]): 0 (Herbicidal rate of 5% or less (almost no effect)) | F: southern crabgrass, herbicidal effect grade (southern crabgrass [6]; 320 g/ha): 3 (Herbicidal rate of 40% or more and less than 70%) | H: barnyard grass, herbicidal effect grade (barnyard grass; 320 g/ha): 5 (Herbicidal rate of 90% or more (almost completely withered)) | K: Italian ryegrass, herbicidal effect grade (Italian ryegrass; 320 g/ha): 4 (Herbicidal rate of 70% or more and less than 90%) | herbicidal effect, N: redroot pigweed (redroot pigweed; [7]): 5 (Herbicidal rate of 90% or more (almost completely withered)) | Q: false cleavers, herbicidal effect grade (false cleavers; 320 g/ha): 5 (Herbicidal rate of 90% or more (almost completely withered))

CCCC(=O)Oc1c(C)nn(C)c(=O)c1-c1c(-c2ccc(F)cc2OCC)sc2c(Cl)cccc12 [4-036]
Herbicidal effect by soil treatment, J: blackgrass (blackgrass [1]; [7]): 0 (Herbicidal rate of 5% or less (almost no effect)) | Herbicidal effect by soil treatment, F: southern crabgrass (southern crabgrass [2]; [7]): 4 (Herbicidal rate of 70% or more and less than 90%) | herbicidal effect on rice flat sedge (E) (rice flat sedge; 320 g/ha): 5 (Herbicidal rate of 90% or more (almost completely withered)) | herbicidal effect on I: wild oat (evaluation grade 0-5) (wild oat [3]; [9]): 0 (Herbicidal rate of 5% or less (almost no effect)) | herbicidal effect on O: lambsquarters (evaluation grade 0-5) (lambsquarters; [9]): 2 (Herbicidal rate of 20% or more and less than 40%) | Herbicidal effect by soil treatment, I: wild oat (wild oat [4]; [7]): 0 (Herbicidal rate of 5% or less (almost no effect)) | herbicidal effect rating, B: Japanese bulrush (Japanese bulrush; AAH 320 g/ha): 0 (Herbicidal rate of 5% or less (almost no effect)) | Herbicidal effect by soil treatment, G: green foxtail (green foxtail): 3 (Herbicidal rate of 40% or more and less than 70%) | herbicidal effect on J: blackgrass (evaluation grade 0-5) (blackgrass [5]; [9]): 3 (Herbicidal rate of 40% or more and less than 70%) | Herbicidal effect, C: oval-leafed pondweed (oval-leafed pondweed; [7]): 4 (Herbicidal rate of 70% or more and less than 90%) | herbicidal effect on M: velvetleaf (evaluation grade 0-5) (velvetleaf; [9]): 5 (Herbicidal rate of 90% or more (almost completely withered)) | herbicidal effect on Chinese sprangletop (D) (Chinese sprangletop; 320 g/ha): 5 (Herbicidal rate of 90% or more (almost completely withered)) | herbicidal effect on F: southern crabgrass (evaluation grade 0-5) (southern crabgrass [6]; [9]): 4 (Herbicidal rate of 70% or more and less than 90%) | herbicidal effect on H: barnyard grass (evaluation grade 0-5) (barnyard grass; [9]): 5 (Herbicidal rate of 90% or more (almost completely withered)) | herbicidal effect on K: Italian ryegrass (evaluation grade 0-5) (Italian ryegrass; [9]): 4 (Herbicidal rate of 70% or more and less than 90%) | Herbicidal effect by soil treatment, N: redroot pigweed (redroot pigweed; [7]): 4 (Herbicidal rate of 70% or more and less than 90%)
